Data published in patent publication US9868737B2, “Pyridino[1,2-A]pyrimidone analogue used as MTOR/P13K inhibitor” (CISEN PHARMACEUTICAL CO., LTD., priority 2014, dated 2018).
Read-outs that look alike come from different tables or passages of the source.

Tested on: MCF-7 cells
Assay: In vitro test of cell activity (MCF-7 cells, insulin stimulation, ELISA-One fluorescence)
Assay type: cell-based
Conditions: for IC50 / inhibition at 0.25 µM / inhibition at 0.5 µM / inhibition at 1 µM: Homo sapiens, MCF7, MCF-7 cells; for inhibition at 0.25 µM: conc. 0.25 μM; for inhibition at 0.5 µM: conc. 0.5 μM
Procedure, shortened: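 Fluorescence ELISA-One read-out on cell lysates, antibody-captured 1 h at room temperature. Before lysis, MCF-7 cells (2.5×10^4/well) were pretreated 2 h with compound in serum-free medium, single dose for screening or a dilution series for IC50, then stimulated 30 min with insulin ([…] final).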

[1] = conc. 1 μM, read-out: % inhibition AKT
[2] = conc. 1 μM, read-out: % inhibition p70s6k

Row | IC50 (read-out: IC50 p-AKT) | SMILES | inhibition at 0.5 µM (read-out: % inhibition AKT) | inhibition at 0.5 µM (read-out: % inhibition p70s6k) | also measured
1 | > 250 nM | COc1nnc(-c2ccc3ncc(Cl)c(=O)n3c2)cc1NS(=O)(=O)c1ccc(F)cc1F [compound 133] |  |  | 
2 |  | COc1ncc(-c2ccc3ncc(-n4ccc(C)n4)c(=O)n3c2)cc1NS(=O)(=O)c1ccccc1Cl [compound 220] |  |  | inhibition at 0.25 µM (read-out: % inhibition AKT): 51.2%; inhibition at 0.25 µM (read-out: % inhibition p70s6k): 11%
3 | ≤ 50 nM | COCOCCOc1cnc2ccc(-c3cnc(OC)c(NS(=O)(=O)c4sc(C)nc4C)c3)cn2c1=O [compound 188] |  |  | 
4 | ≤ 50 nM | COc1ncc(-c2ccc3ncc(F)c(=O)n3c2)cc1NS(=O)(=O)c1ccc(C(F)(F)F)cc1 [compound 69] | 85.4% | 87.6% | IC50 (read-out: IC50 p-p70S6K): 50 to 100 nM
5 |  | COc1ncc(-c2ccc3nc(C)cc(=O)n3c2)cc1NS(=O)(=O)c1ccc(C(F)(F)F)cc1 [compound 223] |  |  | inhibition at 0.25 µM (read-out: % inhibition AKT): 17.9%; inhibition at 0.25 µM (read-out: % inhibition p70s6k): -1.5%
6 | ≤ 50 nM | COc1ncc(-c2ccc3ncc(OC)c(=O)n3c2)cc1NS(=O)(=O)c1ccccc1F [compound 107] | 94.5% | 91% | IC50 (read-out: IC50 p-p70S6K): 50 to 100 nM
7 | ≤ 50 nM | COc1ncc(-c2ccc3ncc(OCC4(C)COC4)c(=O)n3c2)cc1NS(=O)(=O)c1sc(C)nc1C [compound 197] |  |  | 
8 | ≤ 50 nM | COc1ncc(-c2ccc3ncc(N)c(=O)n3c2)cc1NS(=O)(=O)c1ccccc1Cl [compound 91] | 94.6% | 89.2% | IC50 (read-out: IC50 p-p70S6K): 50 to 100 nM
9 |  | COc1ncc(-c2cn3c(=O)ccnc3cc2F)cc1NS(=O)(=O)c1c(F)cccc1F [compound 114] | 53% | -1.2% | 
10 |  | COc1ncc(-c2cn3c(=O)ccnc3cn2)cc1NS(=O)(=O)c1ccccc1Cl [compound 51] | 64.1% | 13.6% | 
11 |  | COc1ncc(-c2ccc3ncc(Cl)c(=O)n3c2)cc1NS(=O)(=O)c1cccc(F)c1 [compound 138] | 68.9% | 73.8% | 
12 |  | COc1ncc(-c2ccc3nccc(=O)n3n2)cc1NS(=O)(=O)c1ccc(F)cc1F [compound 71, 2,4-difluoro-N-(2-methoxy-5-(4-oxo-4H-pyrimido[1,2-b]pyridazin-7-yl)pyridin-3-yl)benzsulfamide] | 63.2% | 20.7% | 
13 |  | CCc1ncc(-c2ccc3nccc(=O)n3c2)cc1NS(=O)(=O)c1ccc(F)cc1F [compound 18] |  |  | inhibition at 1 µM [1]: 85.7%; inhibition at 1 µM [2]: 46.2%
14 | ≤ 50 nM | COc1ncc(-c2ccc3ncc(N)c(=O)n3c2)cc1NS(=O)(=O)c1ccc(F)cc1F [compound 87, N-(5-(3-amino-4-oxo-4H-pyrido[1,2-a]pyrimidin-7-yl)-2-methoxpyridin-3-yl)-2,4-difluorobenzsulfamide] | 92.1% | 88.1% | IC50 (read-out: IC50 p-p70S6K): 100 to 250 nM
15 | 50 to 100 nM | COc1ncc(-c2ccc3ncc(F)c(=O)n3c2)cc1NS(=O)(=O)c1ccc(C#N)cc1 [compound 70] | 75.4% | 99% | IC50 (read-out: IC50 p-p70S6K): 50 to 100 nM
16 |  | COc1ncc(-c2ccc3ncc(-n4ccc(C)n4)c(=O)n3c2)cc1NS(=O)(=O)c1ccc(F)cc1F [compound 216, 2,4-difluoro-N-(2-methoxy-5-(3-(3-methyl-1H-pyrazol-1-yl)-4-oxo-4H-pyrido[1,2-a]pyrimidin-7-yl)pyridin-3-yl)benzsulfamide] |  |  | inhibition at 0.25 µM (read-out: % inhibition AKT): 34.1%; inhibition at 0.25 µM (read-out: % inhibition p70s6k): 31%
17 |  | COc1ncc(-c2ccc3ncc(-n4ccc(C)n4)c(=O)n3c2)cc1NS(=O)(=O)c1ccc(Cl)s1 [compound 217] |  |  | inhibition at 0.25 µM (read-out: % inhibition AKT): 54%; inhibition at 0.25 µM (read-out: % inhibition p70s6k): 67.7%
18 | ≤ 50 nM | COc1ncc(-c2ccc3nccc(=O)n3c2)cc1NS(=O)(=O)c1ccccc1C [compound 20] |  |  | inhibition at 1 µM [1]: 93.8%; inhibition at 1 µM [2]: 89.9%; IC50 (read-out: IC50 p-p70S6K): 100 to 250 nM
19 | 100 to 250 nM | COc1ncc(-c2ccc3ncc(Cl)c(=O)n3c2)cc1NS(=O)(=O)c1cnc(C)n1C [compound 154] |  |  | inhibition at 0.25 µM (read-out: % inhibition AKT): 85.4%; inhibition at 0.25 µM (read-out: % inhibition p70s6k): 92.6%; IC50 (read-out: IC50 p-p70S6K): 50 to 100 nM
20 | ≤ 50 nM | COCc1cnc2ccc(-c3cnc(OC)c(NS(=O)(=O)c4sc(C)nc4C)c3)cn2c1=O [compound 239, N-(2-methoxy-5-(3-(methoxymethyl)-4-oxo-4H-pyrido[1,2-a]pyrimidin-7-yl)pyridin-3-yl)-2,4-dimethylthiazolyl-5-sulfamide] |  |  | 
21 |  | COc1ncc(-c2ccc3nccc(=O)n3c2C)cc1NS(=O)(=O)c1cccc(F)c1 [compound 53] | 68% | 40.9% | 
22 |  | COc1ncc(-c2cn3c(=O)ccnc3cc2C)cc1NS(=O)(=O)c1ccccc1F [compound 123] | -82.1% | 6.7% | 
23 | 100 to 250 nM | COc1ncc(-c2ccc3ncc(Cl)c(=O)n3c2)cc1NS(=O)(=O)c1ncccc1Cl [compound 159] |  |  | inhibition at 0.25 µM (read-out: % inhibition AKT): 68.6%; inhibition at 0.25 µM (read-out: % inhibition p70s6k): 84.8%; IC50 (read-out: IC50 p-p70S6K): 100 to 250 nM

Row | IC50 (read-out: IC50 p-AKT) | SMILES | inhibition at 0.5 µM (read-out: % inhibition AKT) | inhibition at 0.5 µM (read-out: % inhibition p70s6k) | also measured
24 | ≤ 50 nM | COc1ncc(-c2ccc3ncc(Cl)c(=O)n3c2)cc1NS(=O)(=O)c1nc(N)sc1C [compound 170] |  |  | 
25 | ≤ 50 nM | COc1ncc(-c2ccc3ncc(Cl)c(=O)n3c2)cc1NS(=O)(=O)c1ccccc1Cl [compound 136] | 95.5% | 87.2% | IC50 (read-out: IC50 p-p70S6K): 50 to 100 nM
26 |  | COc1ncc(-c2ccc3nccc(=O)n3c2)cc1NS(=O)(=O)c1ccc(Cl)cc1F [compound 27] |  |  | inhibition at 1 µM [1]: 94.8%; inhibition at 1 µM [2]: 93.5%
27 |  | COc1ncc(-c2cn3c(=O)ccnc3cc2C)cc1NS(=O)(=O)c1cc(F)ccc1F [compound 131] | -27% | 4.5% | 
28 | ≤ 50 nM | CCOCCOc1cnc2ccc(-c3cnc(OC)c(NS(=O)(=O)c4sc(C)nc4C)c3)cn2c1=O [compound 199] |  |  | 
29 | 50 to 100 nM | COCCOc1cnc2ccc(-c3cnc(OC)c(NS(=O)(=O)c4ccccc4F)c3)cn2c1=O [compound 254] |  |  | 
30 |  | COc1ncc(-c2cn3c(=O)ccnc3cn2)cc1NS(=O)(=O)c1cc(F)cc(F)c1 [compound 40] | 18.1% | 13.7% | 
31 | 100 to 250 nM | COc1ncc(-c2ccc3ncc(Cl)c(=O)n3c2)cc1NS(=O)(=O)c1sc(NC(C)=O)nc1C [compound 167] |  |  | 
32 |  | COc1ncc(-c2ccc3nccc(=O)n3c2C)cc1NS(=O)(=O)c1cc(F)ccc1F [compound 60] | 67.9% | 43.9% | 
33 | 100 to 250 nM | COCCOc1cnc2ccc(-c3cnc(OC)c(NS(=O)(=O)c4cc(F)c(F)cc4Cl)c3)cn2c1=O [compound 266] |  |  | 
34 |  | COc1ncc(-c2ccc3nc(C)cc(=O)n3c2)cc1NS(=O)(=O)c1cc(F)ccc1F [compound 226] | 14.8% | 4.6% | 
35 |  | COc1ncc(-c2cn3c(=O)ccnc3cn2)cc1NS(=O)(=O)c1ccc(F)cc1F [compound 39, 2,4-difluoro-N-(2-methoxy-5-(4-oxo-4H-pyrazino[1,2-a]pyrimidin-7-yl)pyridin-3-yl)benzsulfamide] | -28.6% | 7.1% | 
36 | ≤ 50 nM | COc1ncc(-c2ccc3ncc(Cl)c(=O)n3c2)cc1NS(=O)(=O)c1cccnc1C [compound 164] |  |  | inhibition at 0.25 µM (read-out: % inhibition AKT): 79.4%; inhibition at 0.25 µM (read-out: % inhibition p70s6k): 89.6%; IC50 (read-out: IC50 p-p70S6K): 50 to 100 nM
37 | 50 to 100 nM | COc1ncc(-c2ccc3ncc(Cl)c(=O)n3c2)cc1NS(=O)(=O)c1cc(F)cc(F)c1 [compound 147] |  |  | inhibition at 0.25 µM (read-out: % inhibition AKT): 80.3%; inhibition at 0.25 µM (read-out: % inhibition p70s6k): 81.3%; IC50 (read-out: IC50 p-p70S6K): 50 to 100 nM
38 |  | COc1ncc(-c2ccc3nccc(=O)n3c2)cc1CS(=O)(=O)c1ccc(F)cc1F [compound 5] |  |  | inhibition at 1 µM [1]: 26%; inhibition at 1 µM [2]: 12.3%
39 |  | COc1ncc(-c2ccc3nccc(=O)n3c2C)cc1NS(=O)(=O)c1ccccc1Cl [compound 54] | 83.1% | 50.8% | 
40 | 50 to 100 nM | COc1ncc(-c2ccc3ncc(OCC4COC4)c(=O)n3c2)cc1NS(=O)(=O)c1cccc(C)c1 [compound 248] |  |  | 
41 |  | COc1ncc(-c2ccc3nccc(=O)n3n2)cc1NS(=O)(=O)c1ccc(C(F)(F)F)cc1 [compound 80] | 54.6% | 14.4% | 
42 |  | COc1ncc(-c2ccc3nccc(=O)n3n2)cc1NS(=O)(=O)c1ccc(F)cc1Cl [compound 78] | 72.6% | 32.6% | 
43 |  | Cc1ncc(-c2ccc3nccc(=O)n3c2)cc1NS(=O)(=O)c1ccc(F)cc1F [compound 14] |  |  | % inhibition AKT (MCF-7 cells, conc. 1 μM): 81.4%; % inhibition p70s6k (MCF-7 cells, conc. 1 μM): 47.3%
44 |  | COc1ncc(-c2cn3c(=O)ccnc3cc2C)cc1NS(=O)(=O)c1ccc(C#N)cc1 [compound 129] | -24.2% | 1.2% | 
45 |  | COc1ncc(-c2cn3c(=O)ccnc3cn2)cc1NS(=O)(=O)c1ccc(F)cc1 [compound 43] | 17.8% | 16.2% | 
